Experimental data as given in patent publication US20130324520A1, “RXRG MODULATORS FOR THE TREATMENT OF CANCER” (SLOAN-KETTERING INSTITUTE FOR CANCER RESEARCH, priority 2011, published 2013).
Entries after “also recorded” stand apart in the source; their conditions may differ.

What was measured:
PC931019 = test: Cell cycle analysis; type: cell-based; details: KRAS mutant pancreatic cancer, day 3
Experimental: After drug treatment, cells were collected for cell cycle analysis, RNA isolation, quantitative PCR, western blot, and immunofluorescence. For cell cycle analysis, retinoblastoma, neuroblastoma, lung, pancreatic, and colon cancer cells were collected and dissociated on days 3, 5, 7, 9, 11, and 16 after treatment. Cells were fixed by 70% cold ethanol alcohol while vortex, and put in −20° C. for storage. […] At 24 hours after treatment, 4 ug/ml Aphidicolin was added to cells with compounds for 24 hr. Aphidicolin was removed by centrifugation and PBS wash, and then added to new wells with fresh medium and compounds. Cells were collected and fixed before addition of aphidicolin, immediately after removal of aphidicolin, and every two hours thereafter until 16-18 hours.
The tubes with cells were taken out of the freezer and alcohol was removed by centrifugation. 150 ul of 0.06 mg/ml propidium iodide with 0.1% NF40 was added to the cells, and then 100 ul of 2 mg/ml of RNase was added to the cells. These were mixed well and incubated at 37° C. for 30 min. The cell ploidy according to DNA contents were measured in FACSCalibur with FL3-Width and FL3-Height as the parameter. Flowjo was used for analysis of the cell cycle changes.

A549 = test: DAPI staining of treated cells; type: cell-based; details: 6 uM, day 1
Experimental: Colon cancer or lung cancer cells were passaged to dishes with coverslips, and incubated in a humidified incubator at 5% CO2 and 37° C. for 1-2 days. The medium was removed and the cells fixed in 4% PFA/PBS for 5 min, gently rinsed with 0.15 M NaCl/20 mM Tris (pH 8.0; TBS), dried, and stored at −20° C.
Co-staining analyses with other antibodies: On completing the first staining reaction as described above, cells were incubated in block 1 for 20 min, incubated overnight with primary antibody in block 1, washed in PBS, incubated for 30 min in block 1 with Cy3 or Cy5 conjugated secondary antibody, and washed in PBS. Sections were then stained with 4′,6′-diamino-2-phenylindole (DAPI) in PBS, mounted in [sequence] Mounting Media (Vector Labs), and analyzed by inverted immunofluorescent microscopy (Axioplan2 Imaging, Carl Zeiss MicroImaging, LLC).

Structure (SMILES): CN1c2ccc([N+](=O)[O-])cc2N=C(c2ccc(C(=O)O)cc2)c2cc3c(cc21)C(C)(C)CCC3(C)C [HX531]
- cell cycle, G1-S transition (PC931019): similarly sensitive; also recorded: inhibited G1-S transition
- DNA condensation and separation (DAPI staining) (A549): DNA condensation and separation defects
- mitosis (DAPI staining) (A549): significantly suppressed mitosis; also recorded: significantly reduced mitosis
